Source: ChEMBL document CHEMBL6096698, “Discovery of a Selective and Orally Bioavailable RET Degrader with Effectiveness in Various Mutations” (J Med Chem, 2025)

Tests used:
[1] = PROTAC activity at CRBN/KIF5B-RET (unknown origin) expressed in mouse BaF3 cells assessed as induction of RET degradation incubated for 24 hrs by immunoblot analysis; assay type: cell-based; settings: BaF3, 24 h
BaF3 [2] = experiment: Antiproliferative activity against mouse BaF3 cells stably expressing KIF5B-RET incubated for 72 hrs by CCK8 assay; assay type: functional, cell-based; settings: BaF3, 72 h
BaF3 [3] = experiment: PROTAC activity at CRBN/KIF5B-RET (unknown origin) expressed in mouse BaF3 cells assessed as induction of RET degradation at 10 nM incubated for 24 hrs by immunoblot analysis relative to control; assay type: cell-based
BaF3 [4] = experiment: Antiproliferative activity against mouse BaF3 cells stably expressing KIF5B-RET V804M mutant incubated for 72 hrs by CCK8 assay; assay type: functional, cell-based; settings: BaF3, 72 h
BaF3 [5] = experiment: Antiproliferative activity against mouse BaF3 cells stably expressing CCDC6-RET G810R mutant incubated for 72 hrs by CCK8 assay; assay type: functional, cell-based; settings: BaF3, 72 h
HeLa = experiment: Cytotoxicity against human HeLa cells; assay type: functional, cell-based
A549 = experiment: Cytotoxicity against human A549 cells; assay type: functional, cell-based
BaF3 [6] = experiment: PROTAC activity at CRBN/KIF5B-RET G810C mutant (unknown origin) expressed in mouse BaF3 cells assessed as induction of RET G810C mutant degradation at 1 to 100 nM incubated for 24 hrs by immunoblot analysis relative to control; assay type: cell-based; settings: dose 1-100 nM
[7] = biological target: Proto-oncogene tyrosine-protein kinase receptor Ret (Homo sapiens, UniProt P07949); experiment: Inhibition of RET (unknown origin) at 10 nM by kinase profiling analysis relative to control
Proto-oncogene tyrosine-protein kinase receptor Ret, sequence (P07949 whole entry): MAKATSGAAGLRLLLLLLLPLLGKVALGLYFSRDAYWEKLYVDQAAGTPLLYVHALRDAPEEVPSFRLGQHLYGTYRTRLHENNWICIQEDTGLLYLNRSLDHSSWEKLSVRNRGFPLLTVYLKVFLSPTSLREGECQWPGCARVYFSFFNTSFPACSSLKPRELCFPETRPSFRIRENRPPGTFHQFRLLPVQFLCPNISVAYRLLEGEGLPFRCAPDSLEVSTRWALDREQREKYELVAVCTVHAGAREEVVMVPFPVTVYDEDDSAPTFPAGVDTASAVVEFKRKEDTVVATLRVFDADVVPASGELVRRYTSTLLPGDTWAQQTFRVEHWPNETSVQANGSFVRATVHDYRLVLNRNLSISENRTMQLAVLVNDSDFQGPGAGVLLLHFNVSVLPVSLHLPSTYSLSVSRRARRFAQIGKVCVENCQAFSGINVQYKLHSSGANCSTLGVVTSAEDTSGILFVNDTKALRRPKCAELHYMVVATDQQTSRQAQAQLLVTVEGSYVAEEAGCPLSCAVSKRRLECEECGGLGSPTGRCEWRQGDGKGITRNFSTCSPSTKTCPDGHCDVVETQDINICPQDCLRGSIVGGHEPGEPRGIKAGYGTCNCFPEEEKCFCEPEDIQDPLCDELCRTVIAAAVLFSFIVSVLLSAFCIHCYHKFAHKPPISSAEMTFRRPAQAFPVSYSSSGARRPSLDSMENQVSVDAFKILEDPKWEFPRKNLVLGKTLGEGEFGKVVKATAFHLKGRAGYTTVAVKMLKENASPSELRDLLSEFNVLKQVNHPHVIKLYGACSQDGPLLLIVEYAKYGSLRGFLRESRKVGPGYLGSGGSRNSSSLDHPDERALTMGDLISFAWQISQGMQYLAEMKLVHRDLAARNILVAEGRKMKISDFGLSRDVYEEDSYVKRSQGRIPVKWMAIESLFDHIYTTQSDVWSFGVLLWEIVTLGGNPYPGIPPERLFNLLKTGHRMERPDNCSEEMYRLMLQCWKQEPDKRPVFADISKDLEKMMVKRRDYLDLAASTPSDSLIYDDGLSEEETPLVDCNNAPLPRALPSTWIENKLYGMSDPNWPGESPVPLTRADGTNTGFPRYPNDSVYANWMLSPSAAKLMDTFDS

[8] = Induction of apoptosis in mouse BaF3 cells stably expressing KIF5B-RET G810C mutant assessed as viable cells at 10 nM incubated for 48 hrs by Annexin V-FITC/PI staining based flow cytometry (reference value: 92.21 %); assay type: functional; settings: read-out: Activity
[9] = Induction of apoptosis in mouse BaF3 cells stably expressing KIF5B-RET G810C mutant assessed as early apoptotic cells at 10 nM incubated for 48 hrs by Annexin V-FITC/PI staining based flow cytometry (reference value: 0.86 %); assay type: functional
[10] = Induction of apoptosis in mouse BaF3 cells stably expressing KIF5B-RET G810C mutant assessed as necrotic cells at 10 nM incubated for 48 hrs by Annexin V-FITC/PI staining based flow cytometry (reference value: 0.94 %); assay type: functional
[11] = Induction of apoptosis in mouse BaF3 cells stably expressing KIF5B-RET G810C mutant assessed as early apoptotic cells at 20 nM incubated for 48 hrs by Annexin V-FITC/PI staining based flow cytometry (reference value: 0.86 %); assay type: functional
[12] = Induction of apoptosis in mouse BaF3 cells stably expressing KIF5B-RET G810C mutant assessed as necrotic cells at 20 nM incubated for 48 hrs by Annexin V-FITC/PI staining based flow cytometry (reference value: 0.94 %); assay type: functional
[13] = Induction of apoptosis in mouse BaF3 cells stably expressing KIF5B-RET G810C mutant assessed as early apoptotic cells at 40 nM incubated for 48 hrs by Annexin V-FITC/PI staining based flow cytometry (reference value: 0.86 %); assay type: functional
[14] = Induction of apoptosis in mouse BaF3 cells stably expressing KIF5B-RET G810C mutant assessed as late apoptotic cells at 40 nM incubated for 48 hrs by Annexin V-FITC/PI staining based flow cytometry (reference value: 5.99 %); assay type: functional
[15] = Induction of apoptosis in mouse BaF3 cells stably expressing KIF5B-RET G810C mutant assessed as apoptotic cells at 10 nM incubated for 48 hrs by Annexin V-FITC/PI staining based flow cytometry (reference value: 6.7 %); assay type: functional
[16] = Tmax in Sprague-Dawley rat at 1 mg/kg, iv measured for 24 hrs by LC-MS/MS analysis; assay type: ADME, organism-based; settings: in vivo
[17] = AUC (0 to infinity) in Sprague-Dawley rat at 1 mg/kg, iv measured for 24 hrs by LC-MS/MS analysis; assay type: ADME, organism-based; settings: in vivo
[18] = Volume of distribution at steady state in Sprague-Dawley rat at 1 mg/kg, iv measured for 24 hrs by LC-MS/MS analysis; assay type: ADME, organism-based; settings: in vivo, read-out: Vdss
[19] = Half life in Sprague-Dawley rat at 10 mg/kg, po measured for 24 hrs by LC-MS/MS analysis; assay type: ADME, organism-based; settings: in vivo
[20] = Tmax in Sprague-Dawley rat at 10 mg/kg, po measured for 24 hrs by LC-MS/MS analysis; assay type: ADME, organism-based; settings: in vivo
[21] = AUC (0 to infinity) in Sprague-Dawley rat at 10 mg/kg, po measured for 24 hrs by LC-MS/MS analysis; assay type: ADME, organism-based; settings: in vivo
BaF3 [22] = experiment: Antitumor activity against mouse BaF3 cells stably expressing KIF5B-RET G810C mutant implanted in BALB/c nu/nu mouse at 10 mg/kg, po bid treated for 10 days relative to control; assay type: functional; settings: BaF3, 240 h, time 10 day, read-out: TGI
[23] = Toxicity in BALB/c nu/nu mouse implanted with mouse BaF3 cells stably expressing KIF5B-RET G810C mutant assessed as body weight loss at 10 mg/kg, po bid treated for 10 days; assay type: organism-based; settings: in vivo, 240 h, time 10 day

COc1ccc(CN2C3CC2CN(c2ccc(-c4cc(N5CCC(N6CCN(CCCC#Cc7cccc8c7CN(C7CCC(=O)NC7=O)C8=O)CC6)CC5)cn5ncc(C#N)c45)cn2)C3)cn1 (stereo not given)
DC50 [1]: 5.6 nM
IC50 (BaF3 [2]): 2.6 nM
Activity (BaF3 [3]): 65%
IC50 (BaF3 [4]): 5.2 nM
IC50 (BaF3 [5]): 122 nM
IC50 (HeLa): > 5000 nM
IC50 (A549): > 5000 nM
Emax (BaF3 [6]): 91%
inhibition [7]: > 50%
viability at 0.01 µM [8]: 64.3%
Activity [9]: 18.33%
Activity [10]: 1.45%
Activity [11]: 38.21%
Activity [12]: 1.01%
Activity [13]: 56.22%
Activity [14]: 15.31%
Activity [15]: 34.1%
Tmax [16]: 4.98 min
AUC(0-inf) [17]: 295 ng·h/mL
Vd [18]: 31.9 L/kg
half-life [19]: 8.21 h
Tmax [20]: 2 h
AUC(0-inf) [21]: 1190 ng·h/mL
inhibition in vivo at 10 mg/kg (BaF3 [22]): 85.1%
Activity [23]: Non-toxic
